Test results as given in patent publication US12668584B2, “Heterocyclic compounds as kinase inhibitors for therapeutic uses” (National Health Research Institutes, priority 2019, dated 2026).

Experiments:
[1] = test system: BaF3-CSF1R-1600 cells (express ETV6-CSF1R fusion protein); experiment: MTS cell viability assay, BaF3-CSF1R-1600; format: cell-based; settings: 72 h, read-out: Cellular Proliferation Assay BaF3-CSF1R GI50
Method: (§1) Studies were conducted to evaluate […] anticancer activity of certain compounds described in EXAMPLE 1 using 3-(4,5-dimethylthiazol-2-yl)-5-(3-carboxymethoxyphenyl)-2-(4-sulfophenyl)-2H-tetrazolium) (MTS) cell viability assays. Results from these studies are shown in Table 2 below (see columns 3 and 4).
(§2) The cell lines M-NFS-60 (ATCC® CRL-1838™) and BaF3-CSF1R-1600 were obtained from American Type Culture Collection (ATCC, Manassas, VA, USA). The stable BaF3-CSF1R-1600 cell line expresses ETV6-CSF1R fusion protein consisting of N-terminal ETS-variant gene 6 protein (ETV6 residues M1-G337) and CSF1R tyrosine kinase (CSF1R residues L533-C972). The M-NSF-60 and BaF3-CSF1R-1600 cells were cultured in RPMI1640 medium supplemented with 10% fetal bovine serum, 0.05 mM 2-ME, 10 U/ml penicillin, and 10 µg/ml streptomycin at 37° C. and 5% CO2.
(§3) M-NFS-60 and BaF3-CSF1R-1600 cells were seeded in 96-well plates at a density of 10000 cells/100 μl and 8000 cells/100 μl per well, respectively, for 16 h and treated with vehicle or various concentrations of test compounds in medium for 72 h. Viable cells were quantified using the MTS method (Promega, Madison, WI, USA) according to manufacturer's recommended protocol. The results were determined by measuring absorbance at 490 nm using a plate reader (Victor 2). The GI50 value was defined as the amount of compound that caused 50% reduction in cell viability in comparison with DMSO-treated (vehicle) control and was calculated using Prism GraphPad Prism version 6 software (GraphPad).

[2] = target: T1, CSF1R kinase (recombinant N-terminal GST-CSF1R, residues L534-C972) (Homo sapiens, UniProt P07333); experiment: CSF1R Kinase-Glo assay; format: biochemical; settings: 40 μM ATP, 30° C. 180 min, read-out: Enzymatic Assay CSF1R enzyme IC50
T1 construct: Recombinant N-terminal GST-CSF1R (CSF1R residues L534-C972) containing the CSFIR kinase domain; made in house; host or cells: Sf9 insect cells
T1 sequence (P07333 534-972): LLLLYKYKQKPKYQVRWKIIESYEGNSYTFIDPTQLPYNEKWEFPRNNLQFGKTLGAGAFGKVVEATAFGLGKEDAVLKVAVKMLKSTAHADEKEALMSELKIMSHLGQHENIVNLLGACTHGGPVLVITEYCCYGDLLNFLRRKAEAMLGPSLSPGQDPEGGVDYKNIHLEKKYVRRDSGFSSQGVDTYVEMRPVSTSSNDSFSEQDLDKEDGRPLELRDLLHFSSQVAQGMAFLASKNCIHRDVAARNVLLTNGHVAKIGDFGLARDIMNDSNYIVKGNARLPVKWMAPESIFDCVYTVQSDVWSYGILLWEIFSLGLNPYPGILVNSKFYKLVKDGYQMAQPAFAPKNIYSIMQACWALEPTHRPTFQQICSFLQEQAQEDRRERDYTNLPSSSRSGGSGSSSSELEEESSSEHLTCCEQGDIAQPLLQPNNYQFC
Method: A study was conducted to test certain compounds described in EXAMPLE 1 in inhibiting CSF1R kinase activity.
Activity of CSF1R kinase was determined using a CSF1R Kinase-Glo assay. Recombinant N-terminal GST-CSF1R (CSF1R residues L534-C972) containing the CSFIR kinase domain was expressed in Sf9 insect cells and purified. The kinase assay was carried out in 96-well plates at 30° C. for 180 min with the tested compounds in a final volume of 50 μl including the following components: 25 mM Tris-HCl pH 7.4, 4 mM MnCl2, 10 mM MgCl2, 0.01% BSA, 0.5 mM NA3VO4, 0.02% Triton X-100, 40 μM ATP, 2 mM DTT and 20 μM poly(Glu,Tyr) 4:1 peptide, and 600 ng recombinant GST-CSF1R. Following incubation, 50 μl Kinase-Glo Plus Reagent (Promega, Madison, WI, USA) was added and the mixture was incubated at 25° C. for 20 min. A 70-μL aliquot of each reaction mixture was transferred to a black microtiter plate and luminescence was measured on Wallac Vector 1420 multilabel counter (PerkinElmer, Shelton, CT, USA). Percentage inhibition values were obtained by comparison of reaction rate with the rates in control wells (i.e., in the absence of test compound). IC50 values were calculated from a series of percentage inhibition values determined at a range of test compound concentrations using GraphPad Prism version 6 software (GraphPad, San Diego, CA, USA).

M-NFS-60 cells = experiment: MTS cell viability assay, M-NFS-60; format: cell-based; settings: 72 h, read-out: Cellular Proliferation Assay M-NFS-60 (nM) GI50
Method: as §1, §2, §3

## O=C(Nc1ccccc1)Nc1ccc(Oc2ncnc3cc(N4CCC[C@@H]4CO)ccc23)cc1 [Compound 1]
[1]
  GI50: 100 to 1000 nM
[2]
  IC50: 20 to 100 nM
M-NFS-60 cells
  GI50: 100 to 1000 nM

## COC1CCN(c2ccc3c(Oc4ccc(NC(=O)Nc5ccccc5)cc4)ncnc3c2)CC1 [Compound 2]
[1]
  GI50: 20 to 100 nM
[2]
  IC50: 20 to 100 nM
M-NFS-60 cells
  GI50: 20 to 100 nM

## CN1CCN(c2ccc3c(Oc4ccc(NC(=O)Nc5ccccc5)cc4)ncnc3c2)CC1 [Compound 3]
[1]
  GI50: 20 to 100 nM
[2]
  IC50: 20 to 100 nM
M-NFS-60 cells
  GI50: 20 to 100 nM

## CN(C)c1ccc2c(Oc3ccc(NC(=O)Nc4ccccc4)cc3)ncnc2c1 [Compound 4, 1-(4-((7-(dimethylamino)quinazolin-4-yl)oxy)phenyl)-3-phenylurea]
[1]
  GI50: 20 to 100 nM
[2]
  IC50: 20 to 100 nM
M-NFS-60 cells
  GI50: 20 to 100 nM

## O=C(Nc1ccccc1)Nc1ccc(Oc2ncnc3cc(N[C@@H]4CCCC[C@H]4O)ccc23)cc1 [Compound 5]
[2]
  IC50: 20 to 100 nM
M-NFS-60 cells
  GI50: 100 to 1000 nM

## COC[C@@H]1CCCN1c1ccc2c(Oc3ccc(NC(=O)Nc4ccccc4)cc3)ncnc2c1 [Compound 6]
[2]
  IC50: 20 to 100 nM

## O=C(Nc1ccccc1)Nc1ccc(Oc2ncnc3cc(Br)ccc23)cc1 [Compound 7]
[2]
  IC50: > 1000 nM

## O=C(Nc1ccccc1)Nc1ccc(Oc2ncnc3cc(F)ccc23)cc1 [Compound 8]
[2]
  IC50: 100 to 1000 nM

## O=C(Nc1ccccc1)Nc1ccc(Oc2ncnc3cc(N4CCCC4)ccc23)cc1 [Compound 9]
[1]
  GI50: 20 to 100 nM
[2]
  IC50: 20 to 100 nM
M-NFS-60 cells
  GI50: 20 to 100 nM

## COC[C@H]1CCCN1c1ccc2c(Oc3ccc(NC(=O)Nc4ccccc4)cc3)ncnc2c1 [Compound 10]
[1]
  GI50: 100 to 1000 nM
[2]
  IC50: 20 to 100 nM
M-NFS-60 cells
  GI50: 100 to 1000 nM

## CN(C)C1CCN(c2ccc3c(Oc4ccc(NC(=O)Nc5ccccc5)cc4)ncnc3c2)CC1 [Compound 11]
[1]
  GI50: 20 to 100 nM
[2]
  IC50: 20 to 100 nM
M-NFS-60 cells
  GI50: 20 to 100 nM

## COCCCNc1ccc2c(Oc3ccc(NC(=O)Nc4ccccc4)cc3)ncnc2c1 [Compound 12]
[2]
  IC50: 20 to 100 nM

## CN(C)c1ccc2c(Oc3ccc(NC(=O)Nc4ccc(C(F)(F)F)cc4)cc3)ncnc2c1 [Compound 13]
[2]
  IC50: 100 to 1000 nM

## CN(C)c1ccc2c(Oc3ccc(NC(=O)Nc4ccccc4F)cc3)ncnc2c1 [Compound 14]
[1]
  GI50: < 20 nM
[2]
  IC50: < 20 nM
M-NFS-60 cells
  GI50: 100 to 1000 nM

## CN(C)c1ccc2c(Oc3ccc(NC(=O)Nc4ccccc4Cl)cc3)ncnc2c1 [Compound 15]
[1]
  GI50: 20 to 100 nM
[2]
  IC50: < 20 nM
M-NFS-60 cells
  GI50: 100 to 1000 nM

## CN(C)c1ccc2c(Oc3ccc(NC(=O)Nc4cccc(Cl)c4)cc3)ncnc2c1 [Compound 16]
[1]
  GI50: 20 to 100 nM
[2]
  IC50: < 20 nM
M-NFS-60 cells
  GI50: 20 to 100 nM

## COC1CCN(c2ccc3c(Oc4ccc(NC(=O)Nc5cccc(Cl)c5)cc4)ncnc3c2)CC1 [Compound 17]
[1]
  GI50: 20 to 100 nM
[2]
  IC50: < 20 nM
M-NFS-60 cells
  GI50: 20 to 100 nM

## CN(C)c1ccc2c(Oc3ccc(NC(=S)Nc4ccccc4)cc3)ncnc2c1 [Compound 22]
[2]
  IC50: 100 to 1000 nM

## CCc1cc(Oc2ncnc3cc(N(C)C)ccc23)ccc1NC(=O)NCc1ccc(C(F)(F)F)nc1 [Compound 29]
[2]
  IC50: 100 to 1000 nM

## Cc1cc(Oc2ncnc3cc(N(C)C)ccc23)c(C)cc1NC(=O)NCc1ccc(C(F)(F)F)nc1 [Compound 35]
[2]
  IC50: > 1000 nM

## CN(C)c1ccc2c(Oc3ccc(NC(=O)NCc4ccc(C(F)(F)F)nc4)c(F)c3)ncnc2c1 [Compound 36]
[2]
  IC50: 20 to 100 nM
M-NFS-60 cells
  GI50: 100 to 1000 nM

## Cc1cc(Oc2ncnc3cc(N(C)C)ccc23)ccc1NC(=O)NCc1ccc(C(F)(F)F)nc1 [Compound 38]
[2]
  IC50: > 1000 nM

## CN(CCCO)c1ccc2c(Oc3ccc(NC(=O)NCc4ccc(C(F)(F)F)nc4)cc3)ncnc2c1 [Compound 39]
[2]
  IC50: < 20 nM
M-NFS-60 cells
  GI50: 100 to 1000 nM

## CCOc1cc2ncnc(Oc3ccc(NC(=O)NCc4ccc(C(F)(F)F)nc4)cc3)c2cc1F [Compound 41]
[1]
  GI50: 100 to 1000 nM
[2]
  IC50: 20 to 100 nM

## CN(C)c1ccc2c(Oc3ccc(N(C)C(=O)NCc4ccc(C(F)(F)F)nc4)cc3)ncnc2c1 [Compound 47]
[2]
  IC50: > 1000 nM

## CN(C)c1ccc2c(Oc3ccc(NC(=O)NCC4CCCCC4)cc3)ncnc2c1 [Compound 50]
[2]
  IC50: 20 to 100 nM

## CN(C)c1ccc2c(Oc3ccc(NC(=O)Nc4cccc5ccccc45)cc3)ncnc2c1 [Compound 52]
[2]
  IC50: 100 to 1000 nM

## CN(C)c1ccc2c(Oc3ccc(NC(=O)Nc4cccc(C(F)(F)F)c4)cc3)ncnc2c1 [Compound 53]
[2]
  IC50: 100 to 1000 nM

## CN(C)c1ccc2c(Oc3ccc(NC(=O)NCc4cccnc4)cc3)ncnc2c1 [Compound 54]
[2]
  IC50: 100 to 1000 nM

## COc1ccc(CNC(=O)Nc2ccc(Oc3ncnc4cc(N(C)C)ccc34)cc2)cc1OC [Compound 55]
[2]
  IC50: 20 to 100 nM

## CN(C)c1ccc2c(Oc3ccc(NC(=O)NCc4ccc(C#N)cc4)cc3)ncnc2c1 [Compound 60]
[2]
  IC50: 20 to 100 nM

## CN(C)c1ccc2c(Oc3ccc(NC(=O)NCc4ccc(C(F)(F)F)cc4)c(F)c3)ncnc2c1 [Compound 61]
[2]
  IC50: 100 to 1000 nM

## CN(C)c1ccc2c(Oc3ccc(NC(=O)NCc4c(F)c(F)c(F)c(F)c4F)cc3)ncnc2c1 [Compound 62]
[1]
  GI50: 100 to 1000 nM
[2]
  IC50: < 20 nM

## COc1ccc(CNC(=O)Nc2ccc(Oc3ncnc4cc(N(C)C)ccc34)cc2C)cc1 [Compound 64]
[2]
  IC50: > 1000 nM

## CN(C)c1ccc2c(Oc3ccc4c(cnn4C(=O)NCc4ccc(C(F)(F)F)nc4)c3)ncnc2c1 [Compound 69]
[2]
  IC50: > 1000 nM

## CN(C)c1ccc2c(Nc3ccc(NC(=O)Nc4ccccc4)cc3)ncnc2c1 [Compound 71]
[2]
  IC50: 100 to 1000 nM

## COCCCNC(=O)c1cc(Oc2ccc(NC(=O)Nc3ccccc3)cc2)ccn1 [Compound 72]
[2]
  IC50: > 1000 nM

## CN(C)c1ccc2c(Oc3ccc(NC(=O)NCc4ccc(C(F)(F)F)nc4)cc3)ccnc2c1 [Compound 73]
[2]
  IC50: 20 to 100 nM

## CN(C)c1ccc2c(Oc3ccc(NC(=O)NCc4ccc(C(F)(F)F)nc4)cc3)c(C#N)cnc2c1 [Compound 75]
[2]
  IC50: > 1000 nM

## O=C(NCc1ccc(C(F)(F)F)nc1)Nc1ccc(Oc2ccnc(C(=O)NCCCN3CCOCC3)c2)cc1 [Compound 77]
[2]
  IC50: 100 to 1000 nM

## CN(C)c1ccc2c(Oc3cnc4c(ccn4C(=O)NCc4ccc(C(F)(F)F)nc4)c3)ncnc2c1 [Compound 83]
[2]
  IC50: 100 to 1000 nM

## CN(C)c1ccc2c(Oc3ccc(NC(=O)NCc4ccn(C)n4)cc3)ncnc2c1 [Compound 84]
[2]
  IC50: 100 to 1000 nM

## Cn1cc(-c2ccc3c(Oc4ccc(NC(=O)NCc5ccc(C(F)(F)F)nc5)cc4)ncnc3c2)cn1 [Compound 85]
[2]
  IC50: 20 to 100 nM

## COC(C)(C)CNC(=O)Nc1ccc(Oc2ncnc3cc(N(C)C)ccc23)cc1 [Compound 87]
[2]
  IC50: > 1000 nM

## CN(C)c1ccc2c(Oc3ccc4c(ccn4C(=O)NCc4ccc(C(F)(F)F)nc4)n3)ncnc2c1 [Compound 89]
[2]
  IC50: 100 to 1000 nM

## CN(C)c1ccc2c(Oc3ccc(NC(=O)NCC(C)(C)C)cc3)ncnc2c1 [Compound 90]
[2]
  IC50: 100 to 1000 nM

## O=C(NCc1ccc(C(F)(F)F)nc1)Nc1ccc(Oc2ncnc3[nH]ccc23)cc1 [Compound 93]
[2]
  IC50: 20 to 100 nM

## CNc1ccc2c(Oc3ccc(NC(=O)Nc4ccccc4)cc3)ncnc2c1 [Compound 107]
[2]
  IC50: 20 to 100 nM
